Data taken from PubChem BioAssay (NCI).
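Test compounds were applied to cells in 96-well plates for 48 hours at 5 doses. GI50 is the concentration that inhibits growth by half. The concentration for full growth arrest is given as TGI.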

Tests used:
Assay in all cases: NCI-60 cell line screen, 48 h
[1] = system: RXF-631 renal
[2] = system: DMS 114 small cell lung
[3] = system: XF 498 CNS
[4] = system: LXFL 529 NSCLC
[5] = system: DMS 273 small cell lung
[6] = system: M19-MEL melanoma
[7] = system: SNB-78 CNS
[8] = system: HOP-18 NSCLC
[9] = system: MDA-N

Compound	TGI [1] [µM]	TGI [2] [µM]	TGI [3] [µM]	TGI [4] [µM]	TGI [5] [µM]	TGI [6] [µM]	TGI [7] [µM]	TGI [8] [µM]	TGI [9] [µM]	GI50 [2] [µM]	GI50 [4] [µM]	GI50 [6] [µM]	GI50 [7] [µM]
CC(C)(C)OC(=O)N1C2CCCC23O[C@@H]1c1cc2c(cc1C3=O)OCO2 (some centres undefined)	> 100	> 100	> 100	> 100	> 100	> 100	> 100						
NC(=S)N/N=C1\CCCC\C1=C/c1ccccc1	> 100	> 100		> 100	82.6	> 100	> 100	> 100					
Cc1ccc2occ/c(=N\Nc3ccccc3)c2c1									> 100				
CCOc1ccc(N=Cc2c3ccccc3nc3ccccc23)cc1	> 100	> 100	> 100	> 100	> 100	> 100	> 100	> 100					
CCCCCCCCCCCCCCCCCCC1=C(O)C(=O)C=C(OC)C1=O		61.8	> 100	> 100	> 100	> 100	> 100	> 100					
NCCN.O=C([O-])[O-].O=C([O-])[O-].[Co+3].[K+]		> 100		> 100		> 100	> 100			> 100	> 100	> 100	> 100
CSc1ccc2c(cc1=O)[C@@H](NC(=O)c1cc(O)c(O)c(O)c1)CCc1cc(O)c(O)c(O)c1-2	30.4		39.4	37.8	39.9	29.9	91.8						
C[P+](C)(C)c1ccccc1	> 100	> 100	> 100	> 100	> 100	> 100		> 100					
C=CCC1(C)CCCCC1(O)CS(=O)c1ccccc1 (centres undefined)	> 100	> 100			> 100	> 100	> 100	> 100					
C1=NC(N(Cc2ccccc2)Cc2ccccc2)N(Cc2ccccc2)N1 (centres undefined)	56	29.3		30.7	29.1	34.2	> 100	45.7					
Nc1ccc(C2=N/C(=C\c3cccc(N)c3)C(=O)O2)cc1	> 100	> 100	> 100	> 100		> 100	> 100						
C=C1C(=O)OC2C1CC(OC(C)=O)/C(C)=C/CCC1(C)OC21 (centres undefined)									> 100				
Cc1ccc(N2C(=O)N(c3ccc(C)cc3)C3(SC=NN3C)C2=O)cc1 (centres undefined)		> 100		> 100		> 100	> 100	> 100					
CCOC(=O)C(C)(c1c(C)[nH]c2ccccc12)c1c(C)[nH]c2ccccc12		41.6	39.4	77.3	31		49.2						
Cc1c2c(C(N)=O)nccc2c(C)c2c1c1ccccc1n2Cc1ccccc1									> 100				
O=C1c2ccccc2C(=O)N1C/C=N/NS(=O)(=O)c1ccc(Br)cc1	> 100	> 100	> 100	> 100	> 100	> 100	> 100	> 100					
C[Si](C)(C)CN1C(=O)c2ccccc2C1(O)c1ccccc1 (centres undefined)	> 100	> 100	> 100	> 100	> 100		> 100	> 100					
CC1CCC(C(C)(C)c2ccccc2)C(=O)C1 (centres undefined)		> 100	> 100	> 100	> 100	> 100	> 100	> 100					

Compound	TGI [1] [µM]	TGI [2] [µM]	TGI [3] [µM]	TGI [4] [µM]	TGI [5] [µM]	TGI [6] [µM]	TGI [7] [µM]	TGI [8] [µM]	TGI [9] [µM]	GI50 [2] [µM]	GI50 [4] [µM]	GI50 [6] [µM]	GI50 [7] [µM]
O=C1c2ccc3c4ccccc4n(-c4ccccc4)c3c2C(=O)N1c1ccc(Cl)cc1	> 100	> 100		> 100	> 100	> 100	> 100						
COc1ccc(/C=N/N=C(\N)NO)c(OC)c1C		71.9		> 100			> 100	60.6					
CC(=O)NC1CONC1=O (centres undefined)									> 100				
COc1ccc(/C=C/c2cnccn2)cc1OC									> 10				
C1COCCSC2=C(SCCO1)SC(=C1SC3=C(SCCOCCOCCS3)S1)S2		> 100	73.3	> 100	> 100		> 100	> 100					
c1ccc(NCCSc2nc3ccccc3s2)cc1									> 100				
COc1cc(-c2nnc3n2NC=C(C(=O)O)S3)cc(OC)c1OC	> 100	> 70	> 100	> 100	> 82.9	> 100	> 100	> 100					
NC(CCc1ncc(C(=O)O)s1)C(=O)O (centres undefined)	> 100	> 100		> 100		> 100	> 100	> 100					
Oc1ccc(/C=C/c2cc(O)cc3c2C(c2cc(O)cc(O)c2)C(c2ccc(O)c(O)c2)O3)cc1 (centres undefined)									56.9				
CC(Cl)CN1c2ccccc2Sc2ccc(Cl)cc21 (centres undefined)									> 10				
CCOC(=O)C1=C(Nc2ccc(Br)cc2)OCC1=O				> 100	> 100	> 100	> 100	> 100					
COc1ccc2nc3cc(Cl)ccc3c(Sc3ccc(NC(C)=O)cc3)c2c1	> 100	14.1	> 25.2	> 23.5	21.6	> 22.2	62.1	> 53.7					
Cc1c(Cl)cccc1NC(=O)c1cccc([N+](=O)[O-])c1O	> 100	48.7	38.8	> 75.1	79.8	48	> 92.6	> 28.9					
CC12CCC(=O)N1c1cccnc1N2 (centres undefined)		> 100	> 100	> 100		> 100	> 100						
COC(=O)c1c[nH]cc1CCCCc1c[nH]cc1C(=O)OC	> 100		> 100		> 100	> 100	> 100	> 100					
COc1cc(/C=N\O[Si](C)(C)C(C)(C)C)ccc1O[Si](C)(C)C(C)(C)C	71.6	83.4	> 100	> 100	> 100	> 100	> 100	> 100					
Cn1c(=S)c2[nH]c(SCCCc3ccccc3)nc2n(C)c1=O									> 100				
COC(=O)C(=O)CC(=O)c1cccc(OC)c1									> 100				
